These results are taken from ChEMBL document CHEMBL3045491, “Antituberculosis activity of hydrazones derived from 4-fluorobenzoic acid hydrazide” (2009).

This experiment concerns Mycobacterium tuberculosis. Description: Antitubercular activity against Mycobacterium tuberculosis H37Rv ATCC 27294 at 6.25 ug/ml by microplate alamar blue assay. Format: functional. (Alamar Blue is a resazurin reagent that responds to reducing activity.)

The term inhibition denotes the percentage by which the read-out fell short of the control. A low value points to a response near the control. Take `C=C/C(C)=N/NC(=O)c1ccc(F)cc1`: 6.25 µg/mL produced 56% inhibition.
`C/C(=N\NC(=O)c1ccc(F)cc1)c1ccco1` showed an inhibition at 6.25 µg/mL of 53%.
With `C/C(=N\NC(=O)c1ccc(F)cc1)c1ccc(Cl)s1`, the inhibition at 6.25 µg/mL turned out to be 64%.
In the case of `CN(C)CCCOc1ccc(/C=N/NC(=O)c2ccc(F)cc2)cc1`, at 6.25 µg/mL the inhibition was 58%.
Compound `O=C(N/N=C/c1ccc(Cl)cc1Cl)c1ccc(F)cc1` registered an inhibition at 6.25 µg/mL of 62%.
On to `O=C(N/N=C/c1cc(Cl)cc(Cl)c1)c1ccc(F)cc1`, for which testing at 6.25 µg/mL gave an inhibition of 65%.
For the compound `C/C(=N\NC(=O)c1ccc(F)cc1)c1ccccc1`, at 6.25 µg/mL the inhibition was 59%.
Turning to `CC/C(=N\NC(=O)c1ccc(F)cc1)c1ccccc1`, 6.25 µg/mL produced 53% inhibition.
Compound `O=C(N/N=C/c1c(Cl)cccc1Cl)c1ccc(F)cc1` showed an inhibition at 6.25 µg/mL of 85%.
The compound `O=C(N/N=C/c1cccc(Oc2ccccc2)c1)c1ccc(F)cc1` yielded an inhibition at 6.25 µg/mL of 84%.
In the case of `C/C(=N\NC(=O)c1ccc(F)cc1)c1ccc[nH]1`, the inhibition at 6.25 µg/mL came out at 66%.
Consider `C/C(=N\NC(=O)c1ccc(F)cc1)c1cccs1`, for which the inhibition at 6.25 µg/mL was 50%.
The value for `C/C(=N\NC(=O)c1ccc(F)cc1)c1ccncc1` was 53%; that for `O=C(N/N=C/c1cccc(F)c1)c1ccc(F)cc1` was 52%.
In turn, `O=C(N/N=C/c1cc(Cl)cc(Cl)c1O)c1ccc(F)cc1` gave an inhibition at 6.25 µg/mL of 69%.
For `C/C(=N\NC(=O)c1ccc(F)cc1)c1ccc(Br)s1` the value was 59%.
